The results in this text go back to patent US8829030B2 (priority 2002, dated 2014).

Molecules are shown by their SMILES. Read-outs that look alike come from different tables or passages of the source. Some results are limits rather than exact numbers.

In this experiment the target is recombinant HCV RNA-dependent RNA polymerase (NS5B protein) (Hepatitis C virus genotype 1b, UniProt P26663). Nature of the experiment: biochemical. Further details: species or system HCV-Bk strain.
Setting [1] is: read-out: Activity (polymerase activity, IC50).

As a reminder, the IC50 is the midpoint of a concentration-inhibition curve.

Chain of recombinant HCV RNA-dependent RNA polymerase (NS5B protein) (P26663 2420-3010 limits assumed): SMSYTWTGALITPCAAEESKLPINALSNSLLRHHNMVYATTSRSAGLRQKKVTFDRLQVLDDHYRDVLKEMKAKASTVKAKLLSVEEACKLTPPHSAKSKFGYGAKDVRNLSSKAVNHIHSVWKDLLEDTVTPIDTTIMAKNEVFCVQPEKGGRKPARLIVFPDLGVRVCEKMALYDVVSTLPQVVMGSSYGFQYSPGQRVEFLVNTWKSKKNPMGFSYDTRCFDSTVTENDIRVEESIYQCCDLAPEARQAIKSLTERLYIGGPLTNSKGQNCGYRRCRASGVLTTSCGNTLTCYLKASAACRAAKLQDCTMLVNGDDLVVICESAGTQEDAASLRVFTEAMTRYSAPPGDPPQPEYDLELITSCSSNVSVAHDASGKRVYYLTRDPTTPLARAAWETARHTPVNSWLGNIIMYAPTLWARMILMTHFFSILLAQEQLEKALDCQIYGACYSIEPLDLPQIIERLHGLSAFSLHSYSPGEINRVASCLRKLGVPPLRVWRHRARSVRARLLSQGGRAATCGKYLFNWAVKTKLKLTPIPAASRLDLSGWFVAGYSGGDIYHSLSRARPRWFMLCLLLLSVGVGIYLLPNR

As for `C[C@H]1CC[C@H](C(=O)N(c2cc(-c3ccc(F)cc3)sc2C(=O)O)[C@H]2CC[C@H](O)CC2)CC1` [Compound 50, 5-(4-fluoro-phenyl)-3-[(4-hydroxy-cyclohexyl)-(4-methyl-cyclohexanecarbonyl)-amino]-thiophene-2-carboxylic acid], the IC50 was below 5 µM. Same read-out and setting: under `CC(=O)N1CCC(N(C(=O)C2CCC(C)CC2)c2cc(-c3ccccc3)sc2C(=O)O)CC1` (centres unmarked) [Compound 48, 3-[(1-acetyl-piperidin-4-yl)-(4-methyl-cyclohexanecarbonyl)-amino]-5-phenyl-thiophene-2-carboxylic acid] stands below 5 µM; under `CC(=O)NC1CC(C)CCC1C(=O)N(c1cc(-c2ccccc2)sc1C(=O)O)C(C)C` (centres unmarked) [Compound 12, 3-[(2-acetylamino-4-methyl-cyclohexanecarbonyl)-isopropyl-amino]-5-phenyl-thiophene-2-carboxylic acid], 5 to 20 µM. Same read-out and setting: under `CC(C)N(C(=O)[C@@H]1CC[C@@H](C)C[C@@H]1O)c1cc(-c2ccc(F)cc2)sc1C(=O)O` [Compound 24] stands below 5 µM.

On to `CC1CCC(C(=O)N(c2cc(-c3ccccc3)sc2C(=O)O)C(C)CN=[N+]=[N-])CC1` (centres unmarked) [Compound 43, 3-[(2-azido-1-methyl-ethyl)-(4-methyl-cyclohexanecarbonyl)-amino]-5-phenyl-thiophene-2-carboxylic acid], for which the IC50 under setting [1] was below 5 µM. In the case of `C[C@H]1CC[C@H](C(=O)N(c2cc(-c3ccccc3)sc2C(=O)O)C2CCS(=O)(=O)CC2)CC1` [Compound 37, 3-[(1,1-Dioxo-tetrahydro-thiopyran-4-yl)-(trans-4-methyl-cyclohexanecarbonyl)-amino]-5-phenyl-thiophene-2-carboxylic acid], the IC50 is below 5 µM. `C[C@H]1CC[C@H](C(=O)N(c2cc(-c3ccccc3)sc2C(=O)O)[C@H]2CC[C@H](O)CC2)CC1` [Compound 15, 3-[(trans-4-Hydroxy-cyclohexyl)-(trans-4-methyl-cyclohexanecarbonyl)-amino]-5-phenyl-thiophene-2-carboxylic acid]: the IC50 is below 5 µM. The same measure, in the same setting: under `C[C@H]1CC[C@H](C(=O)N(c2cc(-c3ccc(F)cc3)sc2C(=O)O)[C@H]2CC[C@@H](O)CC2)CC1` [Compound 73, 5-(4-fluoro-phenyl)-3-[(4-hydroxy-cyclohexyl)-(4-methyl-cyclohexanecarbonyl)-amino]-thiophene-2-carboxylic acid] stands below 5 µM; under `CO[C@H]1CC[C@H](N(c2cc(-c3ccccc3)sc2C(=O)O)C(=O)[C@H]2CC[C@H](C)CC2)CC1` [Compound 46, 3-[(4-methoxy-cyclohexyl)-(4-methyl-cyclohexanecarbonyl)-amino]-5-phenyl-thiophene-2-carboxylic acid], below 5 µM; under `CC(C)N(C(=O)C1=CC[C@H](C)CC1)c1cc(-c2ccc(F)cc2)sc1C(=O)O` [Compound 26, (4R)-5-(4-Fluoro-phenyl)-3-[isopropyl-(4-methyl-cyclohex-1-enecarbonyl)-amino]-thiophene-2-carboxylic acid], below 5 µM. On the same count and under the same terms, under `C[C@H]1CC[C@H](C(=O)N(c2cc(-c3ccccc3)sc2C(=O)O)[C@H]2CC[C@H](O)C2)CC1` [Compound 90, 3-[(3-hydroxy-cyclopentyl)-(4-methyl-cyclohexanecarbonyl)-amino]-5-phenyl-thiophe-2-carboxylic acid] stands below 5 µM; under `CC1CCC(C(=O)N(c2cc(-c3cccc(F)c3)sc2C(=O)O)C2CCC(O)CC2)CC1` (centres unmarked) [Compound 51, 5-(3-fluoro-phenyl)-3-[(4-hydroxy-cyclohexyl)-(4-methyl-cyclohexanecarbonyl)-amino]-thiophene-2-carboxylic acid], below 5 µM; under `CC1CCC(C(=O)N(CC2CCCNC2)c2cc(-c3ccccc3)sc2C(=O)O)CC1` (centres unmarked) [Compound 1, 3-{[(2-carboxy-5-phenyl-thiophen-3-yl)-(4-methyl-cyclohexanecarbonyl)-amino]-methyl}-piperidinium; trifluoro-acetate], below 5 µM. Same read-out and setting: under `CC1=CCC(C(=O)N(c2cc(-c3ccccc3)sc2C(=O)O)C(C)C)OC1` (centres unmarked) [Compound 30, 3-[isopropyl-(5-methyl-3,6-dihydro-2H-pyran-2-carbonyl)-amino]-5-phenyl-thiophene-2-carboxylic acid] stands below 5 µM; under `C[C@H]1CC[C@H](C(=O)N(c2cc(-c3ccc(F)c(F)c3)sc2C(=O)O)[C@H]2CC[C@H](O)CC2)CC1` [Compound 79, 5-(3,4-difluoro-phenyl)-3-[(4-hydroxy-cyclohexyl)-(4-methyl-cyclohexanecarbonyl)-amino]-thiophene-2-carboxylic acid], below 5 µM. In the case of `CC1CCC(C(=O)N(c2cc(-c3ccccc3)sc2C(=O)O)[C@H]2CC[C@H](C(=O)O)CC2)CC1` (some centres unmarked) [Compound 76, 3-[(4-carboxy-cyclohexyl)-(4-methyl-cyclohexanecarbonyl)-amino]-5-phenyl-thiophene-2-carboxylic acid], the IC50 is below 5 µM. The same measure, in the same setting: under `CS(=O)(=O)N1CCC(N(c2cc(-c3ccccc3)sc2C(=O)O)C(=O)[C@H]2CC[C@H](C)CC2)CC1` [Compound 70, 3-[(1-methanesulfonyl-piperidin-4-yl)-(4-methyl-cyclohexanecarbonyl)-amino]-5-phenyl-thiophene-2-carboxylic acid] stands below 5 µM.

With `CC1CCC(C(=O)N(c2cc(-c3ccccc3)sc2C(=O)O)C2CCN(C#N)CC2)CC1` (centres unmarked) [Compound 77, 3-[(1-cyano-piperidin-4-yl)-(4-methyl-cyclohexanecarbonyl)-amino]-5-phenyl-thiophene-2-carboxylic acid], the IC50 is below 5 µM. Same read-out and setting: under `C[C@H]1CC[C@H](C(=O)N(c2cc(-c3ccccc3)sc2C(=O)O)C2CCSCC2)CC1` [Compound 34, 3-[(trans-4-Methyl-cyclohexanecarbonyl)-(tetrahydro-thiopyran-4-yl)-amino]-5-phenyl-thiophene-2-carboxylic acid] stands below 5 µM.

As to `CC1CCC(C(=O)N(c2cc(-c3ccccc3)sc2C(=O)O)C2CCN(C)C(=O)C2)CC1` (centres unmarked) [Compound 75, 3-[(4-methyl-cyclohexanecarbonyl)-(1-methyl-2-oxo-piperidin-4-yl)-amino]-5-phenyl-thiophene-2-carboxylic acid], the IC50 under setting [1] is below 5 µM. For the compound `C[C@H]1CC[C@H](C(=O)N(c2cc(-c3ccccc3)sc2C(=O)O)[C@H]2CCC[C@@H](O)C2)CC1` (stereo in doubt) [Compound 87, 3-[(3-hydroxy-cyclohexyl)-(4-methyl-cyclohexanecarbonyl)-amino]-5-phenyl-thiophene-2-carboxylic acid], the half-inhibitory concentration (IC50) is below 5 µM.

As for `C[C@H]1CC[C@H](C(=O)N(c2cc(-c3ccccc3)sc2C(=O)O)[C@H]2CC[C@@H](O)CC2)CC1` [Compound 47, 3-[(4-methyl-cyclohexanecarbonyl)-(4-hydroxy-cyclohexyl)-amino]-5-phenyl-thiophene-2-carboxylic acid], the IC50 was below 5 µM.

Consider `CC1CCC(C(=O)N(c2cc(-c3ccccc3)sc2C(=O)O)C2CCC(=O)CC2)CC1` (centres unmarked) [Compound 13, 3-[(4-methyl-cyclohexanecarbonyl)-(4-oxo-cyclohexyl)-amino]-5-phenyl-thiophene-2-carboxylic acid], for which the IC50 is below 5 µM. Same read-out and setting: under `CC(=O)c1ccc(-c2cc(N(C(=O)[C@H]3CC[C@H](C)CC3)[C@H]3CC[C@H](O)CC3)c(C(=O)O)s2)cc1` [Compound 85, 5-(4-acetyl-phenyl)-3-[(4-hydroxy-cyclohexyl)-(4-methyl-cyclohexanecarbonyl)-amino]-thiophene-2-carboxylic acid] stands below 5 µM; under `CC1CCC(C(=O)N(c2cc(-c3ccccc3)sc2C(=O)O)C2CCN(C=O)CC2)CC1` (centres unmarked) [Compound 63, 3-[(1-formyl-piperidin-4-yl)-(4-methyl-cyclohexanecarbonyl)-amino]-5-phenyl-thiophene-2-carboxylic acid], below 5 µM; under `CC1CCC(C(=O)N(c2cc(-c3ccccc3)sc2C(=O)O)C2CCN(C(N)=O)CC2)CC1` (centres unmarked) [Compound 81, 3-[(1-carbamoyl-piperidin-4-yl)-(4-methyl-cyclohexanecarbonyl)-amino]-5-phenyl-thiophene-2-carboxylic acid], below 5 µM. Same read-out and setting: under `CC1(O)CCC(N(c2cc(-c3ccccc3)sc2C(=O)O)C(=O)[C@H]2CC[C@@H](C)CC2)CC1` (relative stereo) [Compound 86, cis-3-[(4-Hydroxy-4-methyl-cyclohexyl)-(4-methyl-cyclohexanecarbonyl)-amino]-5-phenyl-thiophene-2-carboxylic acid] stands below 5 µM; under `CC1COC(C(=O)N(c2cc(-c3ccccc3)sc2C(=O)O)C(C)C)OC1` (centres unmarked) [Compound 22, 3-[isopropyl-(5-methyl-[1,3]dioxane-2-carbonyl)-amino]-5-phenyl-thiophene-2-carboxylic acid], 5 to 20 µM; under `COc1ccc(-c2cc(N(C(=O)C3CCC(C)CC3O)C(C)C)c(C(=O)O)s2)cc1` (centres unmarked) [Compound 62, 3-[(2-hydroxy-4-methyl-cyclohexanecarbonyl)-isopropyl-amino]-5-(4-methoxy-phenyl)-thiophene-2-carboxylic acid], below 5 µM. For `COc1ccc(-c2cc(N(C(=O)C3CCC(C)CC3)C3CCC(O)CC3)c(C(=O)O)s2)cc1` (centres unmarked) [Compound 60, 3-[(4-hydroxy-cyclohexyl)-(4-methyl-cyclohexanecarbonyl)-amino]-5-(4-methoxy-phenyl)-thiophene-2-carboxylic acid], the IC50 is below 5 µM. Still for that read-out and setting: in the case of `CC1CCC(C(=O)N(Cc2ccncc2)c2cc(-c3ccccc3)sc2C(=O)O)CC1` (centres unmarked) [Compound 4, 3-[(4-methyl-cyclohexanecarbonyl)-pyridin-4-ylmethyl-amino]-5-phenyl-thiophene-2-carboxylic acid] it was below 5 µM. Regarding `CNC(=O)N1CCC(N(C(=O)C2CCC(C)CC2)c2cc(-c3ccccc3)sc2C(=O)O)CC1` (centres unmarked) [Compound 74, 3-[(1-methylcarbamoyl-piperidin-4-yl)-(4-methyl-cyclohexanecarbonyl)-amino]-5-phenyl-thiophene-2-carboxylic acid], the IC50 under setting [1] is below 5 µM.
